US6596778B1, “β-endorphin peptides for treating muscle-wasting diseases” (The University of Birmingham, priority 1997, dated 2003)
Where a SMILES comes first, the peptide text is derived from it. Where no end group is shown, it is not given here. [ ]: non-standard residue; d: D form. Sar = CNCC(=O)O

Legend:
mouse diaphragm muscle [1] = assay type: cell-based, mice, C57BL/6j strain; settings: for blockade of the agonist's/peptide's effect on contractile responses by BNTX (d1-opioid antagonist): BNTX 2.5×10^−7 M; for blockade of the agonist's/peptide's effect on contractile responses by BNTX (d1-opioid antagonist) / blockade of the agonist's/peptide's effect on contractile responses by NTB (d2-opioid antagonist): agonist/peptide 2.5×10^−7 M; for blockade of the agonist's/peptide's effect on contractile responses by NTB (d2-opioid antagonist): NTB 2.5×10^−7 M; for blockade of the peptide's effect on contractile responses by naloxone: naloxone 2.5×10^−6 M; for blockade of the peptide's effect on contractile responses by naloxone / 1/2 relaxation time / Time to peak: peptide 2.5×10^−7 M; for 1/2 relaxation time / Time to peak: low frequency indirect stimulation, mean ± S.E.M.
Method: (§1) Adult female mice, 3-4 months of age, of the C57BL/6j strain were killed by cervical dislocation and the skin and musculature around the rib cage were removed. The diaphragm and part of the rib cage were carefully dissected out along with a length of the left phrenic nerve. The left hemidiaphragm (together with the left phrenic nerve stump) was pinned out in an organ bath containing oxygenated Krebs solution which was gassed continuously with 95% O2-5% CO2 at room temperature (approximately 20° C.) as described in Khan, S.; Smith, M. E., Muscle Nerve, 18, 1250-1256; 1995. The central tendon was attached with the aid of a silk thread to a force transducer (Dynamometer, model UF1), and the phrenic nerve was introduced into the end of a suction electrode for indirect stimulation.
(§2) The phrenic nerve was stimulated continuously at a low frequency (0.5 Hz) with supramaximum square wave pulses of 0.2 msec width using a dual channel stimulator (Digitimer D4030). The muscle was allowed to equilibrate until the responses of the stimulated muscle had reached a constant amplitude (approximately 20 min). Krebs solution ([…]), or a solution ([…]) of the appropriate peptide, was added to the centre of the organ bath whilst the contractions were being recorded.
(§3) Direct stimulation of the muscle was effected by two stainless steel needle electrodes placed near the centre of the hemidiaphragm. The position of the force transducer was adjusted until a constant resting tension was seen. When direct stimulation of the muscle was employed d-tubocurarine chloride (2.5×10^−6M) was included in the bathing medium to block the acetylcholine (ACh) receptors and prevent indirect stimulation of the muscles via the motor nerve terminals. The phrenic nerve was stimulated continuously at 0.5 Hz, d-tubocurarine was added to the organ bath, and then, when the responses to nerve stimulation had ceased, the muscle was subjected to continuous direct supramaximum stimulation at a frequency of 0.5 Hz. […] The amplitude, time to peak and half relaxation time of the contractions developed in response to indirect and direct stimulation were determined. The half-relaxation time of the contractions was expressed as the time taken for the tension to decline from the maximum amplitude to half maximum. The dose-response curves were analyzed using a Kaloidograph software package to determine the values for EC50 and maximum response. The significance of the results was determined, unless otherwise stated, using ANOVA, with treatment as the grouping factor, followed by the Bonferroni-Dunn post hoc test.

dystrophic mice = assay: Chronic intravenous injection in dystrophic mice (body weight, EDL muscle weight, CPK in blood and muscle); assay type: in vivo
Method: In one series of experiments, the C-terminal peptide, glycylglutamine, was injected intravenously into the blood of dystrophic mice 4 to 5 times a week in an amount of approximately 1.5 microgram/g body weight each time over a seven week period. Control mice were injected with the same volume of saline at the same times. There were six mice in each group.
The following measurements were made:
1. Change in body weight (the dystrophic mice would usually not gain significant weight over seven weeks and might even lose weight-depending on their age).
2. Weight of the extensor digitorum longus (EDL) muscle.
3. Level of CPK in the blood (a diagnostic test for muscular dystrophy is to measure the level of CPK in the blood. In muscle diseases, the blood levels of enzymes such as CPK are elevated and in muscular dystrophy the levels can be very high).
4. CPK enzyme levels in the muscle.

mouse diaphragm muscle [2] = assay: Contractions of hemidiaphragm in response to direct stimulation of the muscle in the presence of d-tubocurarine; assay type: cell-based, mice, C57BL/6j strain; settings: peptide 2.5×10^−8 M, mean ± S.E.M.
Method: as §1
as §3, with “terminals.” for “terminals. The phrenic nerve was stimulated continuously at 0.5 Hz, d-tubocurarine was added to the organ bath, and then, when the responses to nerve stimulation had ceased, the muscle was subjected to continuous direct supramaximum stimulation at a frequency of 0.5 Hz.”, “test. […]” for “test.”

[3] = tested on: CPK leakage into the blood; settings: intravenous injection of β-endorphin alone; cited from earlier work
mouse diaphragm muscle [4] = assay: Contractions of hemidiaphragm in response to nerve stimulation in the presence of neostigmine sulphate; assay type: cell-based, mice, C57BL/6j strain; settings: neostigmine sulphate 10^−5 M, peptide 10^−7 M; mean ± S.E.M.
Method: as §1
as §2, with “recorded. […]” for “recorded.”

[5] = indirect stimulation 0.5 Hz, mean ± SEM

N[C@@H](CCC(=O)O)C(=O)O [L-glutamic acid]
effect on the amplitude of the contractions (in words) (mouse diaphragm muscle [1]; indirect stimulation 0.5 Hz): no effect

CC(C)[C@H](NC(=O)[C@H](CCC(=O)O)NC(=O)[C@H](Cc1ccccc1)NC(=O)[C@@H](C)NC(=O)[C@@H](N)Cc1ccc(O)cc1)C(=O)N[C@H](C(=O)NCC(N)=O)C(C)C [deltorphin II]
EC50 (mouse diaphragm muscle [1]; indirect stimulation 0.5 Hz, room temperature, read-out: EC50 for increase in contractile response): 0.2 nM

NCC(=O)N[C@@H](CCC(N)=O)C(=O)O [glycylglutamine, glycyl-L-glutamine] (H-Gly-Gln-OH)
increase in body weight (dystrophic mice; i.v. approximately 1.5 microgram/g 4 to 5 times a week, seven week period, statistically significant): approximately 12%
reduction of CPK level in the blood (dystrophic mice; i.v. approximately 1.5 microgram/g 4 to 5 times a week, seven weeks): 25%
increase in EDL muscle weight (dystrophic mice; i.v. approximately 1.5 microgram/g 4 to 5 times a week, seven weeks, not statistically significant): approximately 5%
increase of enzyme (CPK) concentration in the EDL muscle (dystrophic mice; seven weeks, calculated on a wet weight basis): 55%
blockade of the agonist's/peptide's effect on contractile responses by BNTX (d1-opioid antagonist) (mouse diaphragm muscle [1]): Neither naloxone, BNTX, nor NTB blocked
blockade of the agonist's/peptide's effect on contractile responses by NTB (d2-opioid antagonist) (mouse diaphragm muscle [1]): Neither naloxone, BNTX, nor NTB blocked
lowest concentration at which significant increases in contractile responses were seen (mouse diaphragm muscle [1]; indirect stimulation): 10^−10 M
effect on the amplitude of the contractions (in words) (mouse diaphragm muscle [1]; indirect stimulation 0.5 Hz): immediate increase
maximum increase in the response (mouse diaphragm muscle [1]; [5]): 18.5±1.5%
blockade of the peptide's effect on contractile responses by naloxone (mouse diaphragm muscle [1]): Neither naloxone, BNTX, nor NTB blocked
tension developed, % of the control values (absence of added peptide) (mouse diaphragm muscle [2]): 98.7±0.9%

CC[C@H](C)[C@H](NC(=O)[C@H](C)NC(=O)[C@H](CC(N)=O)NC(=O)[C@H](CCCCN)NC(=O)[C@H](Cc1ccccc1)NC(=O)[C@H](CC(C)C)NC(=O)[C@@H](NC(=O)[C@@H](NC(=O)[C@H](CC(C)C)NC(=O)[C@@H]1CCCN1C(=O)[C@@H](NC(=O)[C@H](CCC(N)=O)NC(=O)[C@H](CO)NC(=O)[C@H](CCCCN)NC(=O)[C@H](CCC(=O)O)NC(=O)[C@H](CO)NC(=O)[C@@H](NC(=O)[C@H](CCSC)NC(=O)[C@H](Cc1ccccc1)NC(=O)CNC(=O)CNC(=O)[C@@H](N)Cc1ccc(O)cc1)[C@@H](C)O)[C@@H](C)O)C(C)C)[C@@H](C)O)C(=O)N[C@H](C(=O)N[C@@H](CCCCN)C(=O)N[C@@H](CC(N)=O)C(=O)N[C@@H](C)C(=O)N[C@@H](Cc1ccc(O)cc1)C(=O)N[C@@H](CCCCN)C(=O)N[C@@H](CCCCN)C(=O)NCC(=O)N[C@@H](CCC(=O)O)C(=O)O)[C@@H](C)CC [β-endorphin]
blockade of the agonist's/peptide's effect on contractile responses by NTB (d2-opioid antagonist) (mouse diaphragm muscle [1]): neither
effect on the amplitude of the contractions (in words) (mouse diaphragm muscle [1]; indirect stimulation 0.5 Hz): immediate increase
maximum increase in the response (mouse diaphragm muscle [1]; [5]): 34.4±2.9%
blockade of the peptide's effect on contractile responses by naloxone (mouse diaphragm muscle [1]): complete blockade
1/2 relaxation time (mouse diaphragm muscle [1]): 99.6 ± 0.3 percentage of the untreated controls
Time to peak (mouse diaphragm muscle [1]): 94.1 ± 0.5 percentage of the untreated controls
effect in preventing CPK leakage into the blood [3]: little effect

Ac-K[dK][Sar]E [β-endorphin28-31 analogue]
blockade of the agonist's/peptide's effect on contractile responses by BNTX (d1-opioid antagonist) (mouse diaphragm muscle [1]): Neither naloxone, BNTX, nor NTB blocked
blockade of the agonist's/peptide's effect on contractile responses by NTB (d2-opioid antagonist) (mouse diaphragm muscle [1]): Neither naloxone, BNTX, nor NTB blocked
duration of the effect on amplitude after addition of the peptide (mouse diaphragm muscle [1]; indirect stimulation): at least 6 minutes
lowest concentration at which significant increases in contractile responses were seen (mouse diaphragm muscle [1]; indirect stimulation): 10^−10 M
effect on the amplitude of the contractions (in words) (mouse diaphragm muscle [1]; indirect stimulation 0.5 Hz): immediate increase
maximum increase in the response (mouse diaphragm muscle [1]; [5]): 16.7±0.9%
blockade of the peptide's effect on contractile responses by naloxone (mouse diaphragm muscle [1]): Neither naloxone, BNTX, nor NTB blocked
1/2 relaxation time (mouse diaphragm muscle [1]): 102.8 ± 2.6 percentage of the untreated controls
Time to peak (mouse diaphragm muscle [1]): 95.9 ± 0.3 percentage of the untreated controls
tension developed in the presence of neostigmine sulphate (mouse diaphragm muscle [4]): 103.4±1.0%
tension developed, % of the control values (absence of added peptide) (mouse diaphragm muscle [2]): 100±1.1%

N-Acetyl β-endorphin (Ac-YGGFMTSEKSQTPLVTLFKNAIIKNAYKKGE; UniProt P01189 237-267, looked up)
effect on the amplitude of the contractions (in words) (mouse diaphragm muscle [1]; indirect stimulation 0.5 Hz): no significant effect
responses in the presence of the peptide (mouse diaphragm muscle [1]; three preparations, concentration not given, mean ± SEM): 101.5±0.7%

β-Endorphin 1-16 (YGGFMTSEKSQTPLVT; Beta-endorphin; UniProt P01189 237-252, looked up, fragment) [β-endorphin fragment (α-endorphin)]
effect on the amplitude of the contractions (in words) (mouse diaphragm muscle [1]; indirect stimulation 0.5 Hz): no significant effect
tension developed, % of the control tension (mouse diaphragm muscle [1]; peptide 10^−6 M, indirect stimulation): 102.0±0.2%

β-endorphin1-27 (YGGFMTSEKSQTPLVTLFKNAIIKNAY; Beta-endorphin; UniProt P01189 237-263, looked up, fragment)
blockade of the agonist's/peptide's effect on contractile responses by NTB (d2-opioid antagonist) (mouse diaphragm muscle [1]): neither
effect on the amplitude of the contractions (in words) (mouse diaphragm muscle [1]; indirect stimulation 0.5 Hz): immediate increase
maximum increase in the response (mouse diaphragm muscle [1]; [5]): not maximum even at 10^−6 M
blockade of the peptide's effect on contractile responses by naloxone (mouse diaphragm muscle [1]): had no effect on the amplitude of the contractions
1/2 relaxation time (mouse diaphragm muscle [1]): 99.4 ± 0.4 percentage of the untreated controls
Time to peak (mouse diaphragm muscle [1]): 98.1 ± 0.4 percentage of the untreated controls
tension developed in the presence of neostigmine sulphate (mouse diaphragm muscle [4]): 102.3±1.2%
tension developed, % of the control values (absence of added peptide) (mouse diaphragm muscle [2]): 99.6±0.5%
